What was measured:
[1] = tested on: K-562; experiment: NCI60 one-dose screen (10 μM), Leukemia; type: cell-based; details: Homo sapiens, K562; 10 μM; K-562, Leukemia; read-out: Growth percent rate
[2] = tested on: HCT-15; experiment: NCI60 one-dose screen (10 μM), Colon Cancer; type: cell-based; details: Homo sapiens; 10 μM; HCT-15, Colon Cancer; read-out: Growth percent rate
[3] = tested on: TK-10; experiment: NCI60 one-dose screen (10 μM), Renal Cancer; type: cell-based; details: Homo sapiens; 10 μM; TK-10, Renal Cancer; read-out: Growth percent rate
[4] = tested on: U251; experiment: NCI60 one-dose screen (10 μM), CNS Cancer; type: cell-based; details: Homo sapiens, U-251; 10 μM; U251, CNS Cancer; read-out: Growth percent rate
[5] = tested on: HOP-62; experiment: NCI60 one-dose screen (10 μM), Non-small Cell Lung Cancer; type: cell-based; details: Homo sapiens; 10 μM; HOP-62, Non-small Cell Lung Cancer; read-out: Growth percent rate
[6] = tested on: SNB-75; experiment: NCI60 one-dose screen (10 μM), CNS Cancer; type: cell-based, human; details: Homo sapiens; 10 μM; SNB-75, CNS Cancer; read-out: Growth percent rate
[7] = tested on: SF-295; experiment: NCI60 one-dose screen (10 μM), CNS Cancer; type: cell-based; details: Homo sapiens; 10 μM; SF-295, CNS Cancer; read-out: Growth percent rate
[8] = tested on: LOX IMVI; experiment: NCI60 one-dose screen (10 μM), Melanoma; type: cell-based, human; details: Homo sapiens; 10 μM; LOX IMVI, Melanoma; read-out: Growth percent rate
[9] = tested on: COLO 205; experiment: NCI60 one-dose screen (10 μM), Colon Cancer; type: cell-based, human; details: Homo sapiens; 10 μM; COLO 205, Colon Cancer; read-out: Growth percent rate
[10] = tested on: SK-MEL-28; experiment: NCI60 one-dose screen (10 μM), Melanoma; type: cell-based; details: Homo sapiens; 10 μM; SK-MEL-28, Melanoma; read-out: Growth percent rate
[11] = tested on: SF-268; experiment: NCI60 one-dose screen (10 μM), CNS Cancer; type: cell-based; details: Homo sapiens; 10 μM; SF-268, CNS Cancer; read-out: Growth percent rate
[12] = tested on: HL-60(TB); experiment: NCI60 one-dose screen (10 μM), Leukemia; type: cell-based; details: Homo sapiens; 10 μM; HL-60(TB), Leukemia; read-out: Growth percent rate
[13] = tested on: RPMI-8226; experiment: NCI60 one-dose screen (10 μM), Leukemia; type: cell-based; details: Homo sapiens; 10 μM; RPMI-8226, Leukemia; read-out: Growth percent rate
[14] = tested on: UACC-257; experiment: NCI60 one-dose screen (10 μM), Melanoma; type: cell-based; details: Homo sapiens; 10 μM; UACC-257, Melanoma; read-out: Growth percent rate
[15] = tested on: SK-MEL-5; experiment: NCI60 one-dose screen (10 μM), Melanoma; type: cell-based, human; details: Homo sapiens; 10 μM; SK-MEL-5, Melanoma; read-out: Growth percent rate
[16] = tested on: CCRF-CEM; experiment: NCI60 one-dose screen (10 μM), Leukemia; type: cell-based; details: Homo sapiens, 10 μM, Leukemia, read-out: Growth percent rate
[17] = tested on: CAKI-1; experiment: NCI60 one-dose screen (10 μM), Renal Cancer; type: cell-based; details: Homo sapiens; 10 μM; CAKI-1, Renal Cancer; read-out: Growth percent rate
[18] = tested on: M14; experiment: NCI60 one-dose screen (10 μM), Melanoma; type: cell-based; details: Homo sapiens; 10 μM; M14, Melanoma; read-out: Growth percent rate
[19] = tested on: 60 human tumor cell lines (NCI60); experiment: NCI60 one-dose screen (10 μM), whole panel; type: cell-based; details: for activity at 10 µM: mean over 60 human cancer cell lines, read-out: Growth percent rate, Mean
[20] = tested on: OVCAR-8; experiment: NCI60 one-dose screen (10 μM), Ovarian Cancer; type: cell-based; details: Homo sapiens; 10 μM; OVCAR-8, Ovarian Cancer; read-out: Growth percent rate
[21] = tested on: SW-620; experiment: NCI60 one-dose screen (10 μM), Colon Cancer; type: cell-based; details: Homo sapiens; 10 μM; SW-620, Colon Cancer; read-out: Growth percent rate
[22] = tested on: A498; experiment: NCI60 one-dose screen (10 μM), Renal Cancer; type: cell-based; details: Homo sapiens; 10 μM; A498, Renal Cancer; read-out: Growth percent rate
[23] = tested on: MALME-3M; experiment: NCI60 one-dose screen (10 μM), Melanoma; type: cell-based; details: Homo sapiens; 10 μM; MALME-3M, Melanoma; read-out: Growth percent rate
[24] = tested on: RXF 393; experiment: NCI60 one-dose screen (10 μM), Renal Cancer; type: cell-based, human; details: Homo sapiens; 10 μM; RXF 393, Renal Cancer; read-out: Growth percent rate
[25] = tested on: MCF7; experiment: NCI60 one-dose screen (10 μM), Breast Cancer; type: cell-based; details: Homo sapiens; 10 μM; MCF7, Breast Cancer; read-out: Growth percent rate
[26] = tested on: MOLT-4; experiment: NCI60 one-dose screen (10 μM), Leukemia; type: cell-based, human; details: Homo sapiens; 10 μM; MOLT-4, Leukemia; read-out: Growth percent rate
[27] = tested on: ACHN; experiment: NCI60 one-dose screen (10 μM), Renal Cancer; type: cell-based; details: Homo sapiens, 10 μM, Renal Cancer, read-out: Growth percent rate
[28] = tested on: SK-MEL-2; experiment: NCI60 one-dose screen (10 μM), Melanoma; type: cell-based; details: Homo sapiens; 10 μM; SK-MEL-2, Melanoma; read-out: Growth percent rate
[29] = tested on: NCI-H23; experiment: NCI60 one-dose screen (10 μM), Non-small Cell Lung Cancer; type: cell-based; details: Homo sapiens; 10 μM; NCI-H23, Non-small Cell Lung Cancer; read-out: Growth percent rate
[30] = tested on: IGROV1; experiment: NCI60 one-dose screen (10 μM), Ovarian Cancer; type: cell-based; details: Homo sapiens, IGROV-1; 10 μM; IGROV1, Ovarian Cancer; read-out: Growth percent rate
[31] = tested on: NCI-H322M; experiment: NCI60 one-dose screen (10 μM), Non-small Cell Lung Cancer; type: cell-based; details: Homo sapiens, 10 μM, Non-small Cell Lung Cancer, read-out: Growth percent rate
[32] = tested on: NCI-H460; experiment: as above; type: cell-based; details: Homo sapiens; 10 μM; NCI-H460, Non-small Cell Lung Cancer; read-out: Growth percent rate
[33] = tested on: 786–0; experiment: NCI60 one-dose screen (10 μM), Renal Cancer; type: cell-based; details: Homo sapiens; 10 μM; 786-0, Renal Cancer; read-out: Growth percent rate
[34] = tested on: MDA-MB-435; experiment: NCI60 one-dose screen (10 μM), Melanoma; type: cell-based; details: Homo sapiens; 10 μM; MDA-MB-435, Melanoma; read-out: Growth percent rate
[35] = tested on: HT29; experiment: NCI60 one-dose screen (10 μM), Colon Cancer; type: cell-based; details: Homo sapiens, HT-29; 10 μM; HT29, Colon Cancer; read-out: Growth percent rate
[36] = tested on: SF-539; experiment: NCI60 one-dose screen (10 μM), CNS Cancer; type: cell-based, human; details: Homo sapiens; 10 μM; SF-539, CNS Cancer; read-out: Growth percent rate
[37] = tested on: SNB-19; experiment: NCI60 one-dose screen (10 μM), CNS Cancer; type: cell-based; details: Homo sapiens; 10 μM; SNB-19, CNS Cancer; read-out: Growth percent rate
[38] = tested on: OVCAR-4; experiment: NCI60 one-dose screen (10 μM), Ovarian Cancer; type: cell-based; details: Homo sapiens; 10 μM; OVCAR-4, Ovarian Cancer; read-out: Growth percent rate
[39] = tested on: KM12; experiment: NCI60 one-dose screen (10 μM), Colon Cancer; type: cell-based, human; details: Homo sapiens; 10 μM; KM12, Colon Cancer; read-out: Growth percent rate
[40] = tested on: DU-145; experiment: NCI60 one-dose screen (10 μM), Prostate Cancer; type: cell-based; details: Homo sapiens; 10 μM; DU-145, Prostate Cancer; read-out: Growth percent rate
[41] = tested on: A549/ATCC; experiment: NCI60 one-dose screen (10 μM), Non-small Cell Lung Cancer; type: cell-based; details: Homo sapiens; 10 μM; A549/ATCC, Non-small Cell Lung Cancer; read-out: Growth percent rate

CC[C@]12C=CCN3CC[C@@]4(c5ccc(OC)cc5N(C)[C@H]4[C@@](O)(C(=O)OC)[C@@H]1OC(=O)CCC(=O)N1CCN(Cc4ccc(F)cc4)CC1)[C@@H]32 [Compound 30]
activity at 10 µM [1]: 65.2%
activity at 10 µM [2]: 79.5%
activity at 10 µM [3]: 60.6%
activity at 10 µM [4]: 71.6%
activity at 10 µM [5]: 88.4%
activity at 10 µM [6]: 64.5%
activity at 10 µM [7]: 67.9%
activity at 10 µM [8]: 71.8%
activity at 10 µM [9]: 66.7%
activity at 10 µM [10]: 104%
activity at 10 µM [11]: 50.8%
activity at 10 µM [12]: 82.2%
activity at 10 µM [13]: 46.3%
activity at 10 µM [14]: 86%
activity at 10 µM [15]: 62.6%
activity at 10 µM [16]: 61.4%
activity at 10 µM [17]: 28.1%
activity at 10 µM [18]: 61%
activity at 10 µM [19]: 71.4%
activity at 10 µM [20]: 73.7%
activity at 10 µM [21]: 102%
activity at 10 µM [22]: 110%
activity at 10 µM [23]: 93.3%
activity at 10 µM [24]: 60.1%
activity at 10 µM [25]: 62.2%
activity at 10 µM [26]: 59.4%
activity at 10 µM [27]: 71.3%
activity at 10 µM [28]: 90.2%
activity at 10 µM [29]: 83.4%
activity at 10 µM [30]: 68.4%
activity at 10 µM [31]: 97.2%
activity at 10 µM [32]: 83.4%
activity at 10 µM [33]: 84.2%
activity at 10 µM [34]: 85.7%
activity at 10 µM [35]: 60.5%
activity at 10 µM [36]: 78.7%
activity at 10 µM [37]: 69.5%
activity at 10 µM [38]: 56.4%
activity at 10 µM [39]: 83.6%
activity at 10 µM [40]: 82.6%
activity at 10 µM [41]: 55.4%

CCC12C=CCN3CCC4(c5cc(NC(=O)CCl)c(OC)cc5N(C)C4C(O)(C(=O)OC)C1OC(C)=O)C32 (stereo not shown) [Compound 12, 10-chloroacetamidovindoline]
activity at 10 µM [1]: 36.4%
activity at 10 µM [2]: 50.1%
activity at 10 µM [3]: 24.8%
activity at 10 µM [4]: -47.9%
activity at 10 µM [5]: -57.6%
activity at 10 µM [6]: -8.81%
activity at 10 µM [7]: 52.2%
activity at 10 µM [8]: 11.5%
activity at 10 µM [9]: 87.2%
activity at 10 µM [10]: -0.03%
activity at 10 µM [11]: -0.99%
activity at 10 µM [12]: 37.9%
activity at 10 µM [13]: -24.7%
activity at 10 µM [14]: -3.69%
activity at 10 µM [15]: -17.6%
activity at 10 µM [16]: 12.6%
activity at 10 µM [17]: 43.8%
activity at 10 µM [18]: 37%
antiproliferative effect (in words) ([19]; 10 μM one-dose, NCI60): moderate cytostatic activity
activity at 10 µM [19]: 18.1%
activity at 10 µM [20]: 29.6%
activity at 10 µM [21]: 64.5%
activity at 10 µM [22]: 54.6%
activity at 10 µM [23]: -14.1%
activity at 10 µM [24]: -32.6%
activity at 10 µM [25]: 2.74%
activity at 10 µM [26]: -26.9%
activity at 10 µM [27]: 37.3%
activity at 10 µM [28]: -69.6%
activity at 10 µM [29]: -4.42%
activity at 10 µM [30]: 27.5%
activity at 10 µM [31]: 58.9%
activity at 10 µM [32]: 51%
activity at 10 µM [33]: 21.3%
activity at 10 µM [34]: 39.9%
activity at 10 µM [35]: 54.1%
activity at 10 µM [36]: 4.74%
activity at 10 µM [37]: 23.1%
activity at 10 µM [38]: -17.1%
activity at 10 µM [39]: 41.5%
activity at 10 µM [40]: 43.9%
activity at 10 µM [41]: 64%

CCC12C=CCN3CCC4(c5ccc(OC)cc5N(C)C4C(O)(C(=O)OC)C1OC(=O)CCCN1CCN(C)CC1)C32 (stereo not shown) [Compound 3]
activity at 10 µM [1]: 66.9%
activity at 10 µM [2]: 91.3%
activity at 10 µM [3]: 99%
activity at 10 µM [4]: 89.9%
activity at 10 µM [5]: 79.9%
activity at 10 µM [6]: 85.3%
activity at 10 µM [7]: 96.2%
activity at 10 µM [8]: 84%
activity at 10 µM [9]: 90%
activity at 10 µM [10]: 85%
activity at 10 µM [11]: 90.8%
activity at 10 µM [12]: 91%
activity at 10 µM [13]: 112%
activity at 10 µM [14]: 90.1%
activity at 10 µM [15]: 74.5%
activity at 10 µM [16]: 108%
activity at 10 µM [17]: 54.5%
activity at 10 µM [18]: 103%
activity at 10 µM [19]: 87.8%
activity at 10 µM [20]: 92.9%
activity at 10 µM [21]: 87%
activity at 10 µM [22]: 83.2%
activity at 10 µM [23]: 77.2%
activity at 10 µM [24]: 73%
activity at 10 µM [25]: 78%
activity at 10 µM [26]: 102%
activity at 10 µM [27]: 103%
activity at 10 µM [28]: 84.7%
activity at 10 µM [29]: 90%
activity at 10 µM [30]: 102%
activity at 10 µM [31]: 96.9%
activity at 10 µM [32]: 97.7%
activity at 10 µM [33]: 106%
activity at 10 µM [34]: 28.9%
activity at 10 µM [35]: 98.8%
activity at 10 µM [36]: 88.1%
activity at 10 µM [37]: 90.6%
activity at 10 µM [38]: 101%
activity at 10 µM [39]: 85.3%
activity at 10 µM [40]: 99.6%
activity at 10 µM [41]: 98.2%

— PMC11277489, “Novel Piperazine Derivatives of Vindoline as Anticancer Agents” (International Journal of Molecular Sciences, 2024)
